Legend:
phosphodiesterase = assay: Inhibitory effect on phosphodiesterase; format: biochemical
endothelial cells = assay: Angiogenesis of endothelial cells on Matrigel; format: cell-based; conditions: 2-8 hours; for ability of angiogenesis compared with control: ECs on Matrigel
Method: The endothelial cells were grown in complete culture medium (1% FBS in SFM) to confluency. One day before the experiment of angiogenesis, the medium was replaced by 0.2% FBS SFM to starve the cells for 16 hours. One the day before the experiment, Matrigel (Corning, 10 mg/ml) was put on ice overnight for thawing, and on the day of experiment, Matrigel was added in the wells of the pre-chilled 96-well plate (50 μl per well) and was distributed evenly in the wells. Then the plate was put in the incubator and incubated at 37 □ for 30 mins. Afterwards, the medium for starvation was removed and the cells were washed twice with DPBS, then Accutase enzyme was added to digest the cells for 1 minute. Later on, the SFM medium for starvation was added to resuspend the cells, and the cells were gently pipetted to form single cell suspension and centrifuged in room temperature at 1000 rpm for 4 mins. The cells were resuspended in SFM medium for starvation and counted. Then, the cells were seeded in 1×10^4 cells per well, and were gently shook to distributed evenly before putting in the incubator at 37 □. The angiogenesis was observed within 2-8 hours.

[1] = system: Id1 promoter driven Venus-Luci dual reporter gene in ID1-V-LUC hES; assay: ID1-V-LUC hES luciferase assay with compound (Example 4); format: cell-based, human; conditions: 18-24 h
Method: ID1-V-LUC hES were seeded in a 96-well plate and were grown to 80% confluency. The old medium was removed and the cells were washed with PBS, then mTeSR medium of human embryonic stem cell (Biowish.Co.,Ltd.) was added. The cells were starved for 6 hours prior to incubating with the compound: 1H-Pyrazolo[3,4-d]pyrimidine, 1-phenyl-4-(1-piperidinyl)- (Cas No :23000-46-6). The compound was serially diluted to 5, 2.5, 1.25, 0.625, 0.3 μg/mL in above-mentioned medium, and sequentially added in the 96-well plate in which the stem cells of the model were seeded. Triplicate replicates were used for each concentration. At the same time, the well in which the medium containing 0.1% DMSO was added as blank control. After the incubation of 18-24 h at 37° C. (5% CO2), the cells were lysed with cell lysis buffer CCLR (Promega), and the luciferase activity were detected using the method according to the instruction of the detection system of reporter gene, Luciferase Assay System (Promega).
The activity of luciferase resulting from the stimulation of the compounds at different concentrations was calculated using the following formula:
Regulation rate=Luciferase activity of compound-treated cells/Luciferase activity of DMSO-treated cells×100%

MCT-PAH rats = assay: Monocrotaline induced PAH rat model (MCT-PAH); format: in vivo, Sprague-Dawley rats; conditions: 4.5 mg/kg intragastric gavage, three weeks after MCT
Method: In vivo experiments with MCT-PAH rats: Monocrotaline (MCT, 55 mg/kg) or saline were administrated subcutaneously in single dose to male Sprague-Dawley rats (supplied by Nation Institutes for Food and Medicament Control). Three weeks after the injection of MCT, 4.5 mg/kg of piperidino pyrazolopyrimidine compound (A), saline or positive control (Sildenafil) were administrated respectively to the rats by intragastric gavage. Two weeks after the administration, the right ventricular systolic pressure (RVSP) was measured and the survival rate was calculated with the data of RVSP recorded in BL-420E system (FIG. 13).

[2] = system: Id1 promoter driven Venus-Luci dual reporter gene in ID1-V-LUC hES; assay: ID1-V-LUC hES differentiated cells stimulated with BMP4, luciferase activity; format: cell-based, human; conditions: after 4 hours of stimulation with 6.25 ng/mL of BMP4, differentiated cells
Method: Id1-Venus-Luc-MC1-DTA plasmid was linearized with AsiSI, and then the resulting plasmid was electroporated into human embryonic stem cells (H9) of P57 (a commercially available human embryonic stem cells which could be passage to expand). At 37° C., CO2 5%, the cells were cultured on the DR4 MEF-feeder-cells (APPLIEDSTEMCELL, Inc., U.S.) with the medium containing serum replacement, and the medium was replaced by fresh medium daily. BioRad electroporation machine (ZAP: 250 V, uF 500, TC 8.6) was used for electroporation, then 19 clones were screened out using puromycin, and the clones with green fluorescence were picked out (the cells containing MC1-DTA plasmid cannot survive). The consistency between fluorescent activity and expression of endogenous Id gene was measured (FIG. 8).
The luciferase activity increased over time (0, 1, 2 and 5 hours) after the stimulation with of BMP4. The effect of external stimulus on the expression of Id gene can be reflected maximally by expression level of luciferase. Therefore, clone 2 (named as ID1-V-LUC hES) was selected and was used to carry out the secondary screening for the compounds (FIG. 9). ID1-V-LUC hES was differentiated toward early mesoderm, also the vascular cell with smooth muscle cell markers (α SMA, Calponin) were obtained. […]

Molecule	inhibitory effect on phosphodiesterase (phosphodiesterase)	ability of angiogenesis relative to VEGF treated ECs (endothelial cells; 1 μM)	ability of angiogenesis compared with control (endothelial cells; 1 μM)	ability of angiogenesis relative to VEGF treated ECs (endothelial cells; 5 μM)	ability of angiogenesis compared with control (endothelial cells; 5 μM)	expression level of luciferase of the stem cells of the model ([1]; 5, 2.5, 1.25, 0.625, 0.3 μg/mL)	peak expression level of luciferase (regulation rate) ([1]; concentration of the compound 2.5 μg/mL, vs DMSO)	pulmonary arterial pressure (right ventricular systolic pressure, RVSP) of MCT-PAH rats (MCT-PAH rats; measured two weeks after the administration)	survival rate of the rats with MCT-PAH (MCT-PAH rats; two weeks after the administration)	regulation rate of ID1-V-LUC [2]
c1ccc(-n2ncc3c(N4CCCCC4)ncnc32)cc1 [piperidino pyrazolopyrimidine compound, 1H-Pyrazolo[3,4-d]pyrimidine,1-phenyl-4-(1-piperidinyl)-]	weak inhibitory effect	comparable	significantly increased	comparable	significantly increased	up-regulated	3.31 fold	decreased significantly	increased obviously	–
BMP4: BMP ligand (Peprotech) used to stimulate ID1-V-LUC hES cells (protein, UniProt P12644 293-408, looked up) Bone morphogenetic protein 4: SPKHHSQRARKKNKNCRRHSLYVDFSDVGWNDWIVAPPGYQAFYCHGDCPFPLADHLNSTNHAIVQTLVNSVNSSIPKACCVPTELSAISMLYLDEYDKVVLKNYQEMVVEGCGCR	–	–	–	–	–	–	–	–	–	7.5 fold

Source: US20180172669A1, “SCREENING AND USE OF PIPERIDINO PYRAZOLOPYRIMIDINE COMPOUND” (Institute of Basic Medical Sciences, Chinese Academy of …, priority 2015, published 2018)
